Experimental data from ChEMBL document CHEMBL5104091, “Pyridazine as a privileged structure: An updated review on anticancer activity of pyridazine containing bioactive molecules” (Eur J Med Chem, 2021).
Values after ≈ are worked out from the molar mass of the structure shown.

Key:
MCF7 [1] = assay: Cytotoxicity against human MCF7 cells assessed as cell growth inhibition measured after 48 hrs by MTT assay; assay type: functional, cell-based; conditions: MCF7, 48 h
P815 = assay: Cytotoxicity against mouse P815 cells assessed as cell growth inhibition measured after 48 hrs by MTT assay; assay type: functional, cell-based; conditions: P815, 48 h
[2] = molecular target: T1, Poly [ADP-ribose] polymerase 1 (Homo sapiens, UniProt P09874); assay: Inhibition of PARP1 (unknown origin) by colorimetric assay
HCT-116 [3] = assay: Cytotoxicity against human HCT-116 cells assessed as cell growth inhibition measured after 48 hrs by SRB assay; assay type: functional, cell-based; conditions: HCT-116, 48 h
[4] = molecular target: Vascular endothelial growth factor receptor 3 (Homo sapiens) (UniProt P35916); assay: Inhibition of VEGFR3 (unknown origin) at 10 uM by ELISA relative to control
[5] = In vivo inhibition of VEGFR2 in Swiss albino mouse implanted with mouse Ehrlich cells incubated for 24 hrs by immunohistochemical staining based analysis relative to control; assay type: functional
PC-3 = assay: Cytotoxicity against human PC-3 cells assessed as cell growth inhibition by MTT assay; assay type: functional, cell-based
MDA-MB-231 = assay: Antiproliferative activity against human MDA-MB-231 cells assessed as cell growth inhibition measured after 48 hrs by WST-1 assay; assay type: functional, cell-based; conditions: MDA-MB-231, 48 h
SK-MEL = assay: Cytotoxicity against human SK-MEL cells assessed as cell growth inhibition; assay type: functional, cell-based
KB = assay: Cytotoxicity against human KB cells assessed as cell growth inhibition; assay type: functional, cell-based
HepG2 [6] = assay: Cytotoxicity against human HepG2 cells assessed as cell growth inhibition after 48 hrs by SRB assay; assay type: functional, cell-based; conditions: HepG2, 48 h
MDA-MB-468 = assay: Cytotoxicity against human MDA-MB-468 cells assessed as cell growth reduction measured after 48 hrs by MTT assay; assay type: functional, cell-based; conditions: MDA-MB-468, 48 h
[7] = molecular target: Hepatocyte growth factor receptor (Homo sapiens, UniProt P08581); assay: Inhibition of MET (unknown origin) at 10 uM incubated for 60 mins by spectrophotometric analysis relative to control
Homo sapiens = species on record: Homo sapiens; assay: Inhibition of WNT (unknown origin) at 10 uM measured after 24 hrs by TOPFlash reporter gene assay
A549 [8] = assay: Antiproliferative activity against human A549 cells assessed as cell growth inhibition measured after 48 hrs by MTT assay; assay type: functional, cell-based; conditions: A549, 48 h
[9] = molecular target: T2, Vascular endothelial growth factor receptor 2 (Homo sapiens, UniProt P35968); assay: Inhibition of VEGFR2 (unknown origin) using ULight-4E-BP1 peptide as substrate incubated for 1 hr in presence of ATP by fluorescence based analysis
A549 [10] = assay: Potency index, ratio of Sorafenib IC50 to compound IC50 for antiproliferative activity against human A549 cells assessed as cell growth inhibition measured after 48 hrs by MTT assay; assay type: functional
[11] = molecular target: T2, Vascular endothelial growth factor receptor 2; assay: Inhibition of VEGFR2 (unknown origin) using poly (Glu,Tyr) 4:1 as substrate measured after 5 mins in presence of ATP by ELISA method
MCF7 [12] = assay: Induction of apoptosis in human MCF7 cells assessed as early apoptotic cells incubated for 24 hrs by annexin-V/FITC and propidium iodide staining based flow cytometry analysis; assay type: functional
Hep 3B2 [13] = assay: Antiproliferative activity against human Hep3B assessed as cell growth inhibition measured after 72 hrs by CCK-8 assay; assay type: functional, cell-based
Hep 3B2 [14] = assay: Induction of apoptosis in human Hep3B cells assessed as early apoptotic cells incubated for 24 hrs by annexin-V/FITC and propidium iodide staining based flow cytometry analysis; assay type: functional
MCF7 [15] = assay: Antiproliferative activity against human MCF7 assessed as cell growth inhibition measured after 72 hrs by CCK-8 assay; assay type: functional, cell-based; conditions: MCF7, 72 h
MCF7 [16] = assay: Antiproliferative activity against human MCF7 cells assessed as cell growth inhibition; assay type: functional, cell-based
[17] = Inhibition of tyrosine kinase (unknown origin); set-up: species or system Homo sapiens
HCT-116 [18] = assay: Cytotoxicity against human HCT-116 cells assessed as cell growth inhibition measured after 72 hrs by MTT assay; assay type: functional, cell-based; conditions: HCT-116, 72 h
MCF7 [19] = assay: Cytotoxicity against human MCF7 cells assessed as cell growth inhibition measured after 72 hrs by MTT assay; assay type: functional, cell-based; conditions: MCF7, 72 h
[20] = molecular target: T2, Vascular endothelial growth factor receptor 2; assay: Binding affinity to VEGFR2 (unknown origin) at 10 uM using ULight-4E-BP1 peptide as substrate incubated for 1 hr in presence of ATP by fluorescence based analysis relative to control
HepG2 [21] = assay: Antiproliferative activity against human HepG2 cells assessed as cell growth inhibition incubated for 48 hrs by MTT assay; assay type: functional, cell-based; conditions: HepG2, 48 h
MCF7 [22] = assay: Antiproliferative activity against human MCF7 cells assessed as cell growth inhibition incubated for 48 hrs by MTT assay; assay type: functional, cell-based; conditions: MCF7, 48 h
[23] = molecular target: T1, Poly [ADP-ribose] polymerase 1; assay: Displacement of [125I]KX1 from PARP1 in human OVCAR-8 cells incubated for 1 hr by wizard gamma counter analysis; assay type: cell-based
MCF-12A = assay: Antiproliferative activity against human MCF-12A cells assessed as cell growth inhibition; assay type: functional, cell-based

T2 sequence (P35968 whole entry): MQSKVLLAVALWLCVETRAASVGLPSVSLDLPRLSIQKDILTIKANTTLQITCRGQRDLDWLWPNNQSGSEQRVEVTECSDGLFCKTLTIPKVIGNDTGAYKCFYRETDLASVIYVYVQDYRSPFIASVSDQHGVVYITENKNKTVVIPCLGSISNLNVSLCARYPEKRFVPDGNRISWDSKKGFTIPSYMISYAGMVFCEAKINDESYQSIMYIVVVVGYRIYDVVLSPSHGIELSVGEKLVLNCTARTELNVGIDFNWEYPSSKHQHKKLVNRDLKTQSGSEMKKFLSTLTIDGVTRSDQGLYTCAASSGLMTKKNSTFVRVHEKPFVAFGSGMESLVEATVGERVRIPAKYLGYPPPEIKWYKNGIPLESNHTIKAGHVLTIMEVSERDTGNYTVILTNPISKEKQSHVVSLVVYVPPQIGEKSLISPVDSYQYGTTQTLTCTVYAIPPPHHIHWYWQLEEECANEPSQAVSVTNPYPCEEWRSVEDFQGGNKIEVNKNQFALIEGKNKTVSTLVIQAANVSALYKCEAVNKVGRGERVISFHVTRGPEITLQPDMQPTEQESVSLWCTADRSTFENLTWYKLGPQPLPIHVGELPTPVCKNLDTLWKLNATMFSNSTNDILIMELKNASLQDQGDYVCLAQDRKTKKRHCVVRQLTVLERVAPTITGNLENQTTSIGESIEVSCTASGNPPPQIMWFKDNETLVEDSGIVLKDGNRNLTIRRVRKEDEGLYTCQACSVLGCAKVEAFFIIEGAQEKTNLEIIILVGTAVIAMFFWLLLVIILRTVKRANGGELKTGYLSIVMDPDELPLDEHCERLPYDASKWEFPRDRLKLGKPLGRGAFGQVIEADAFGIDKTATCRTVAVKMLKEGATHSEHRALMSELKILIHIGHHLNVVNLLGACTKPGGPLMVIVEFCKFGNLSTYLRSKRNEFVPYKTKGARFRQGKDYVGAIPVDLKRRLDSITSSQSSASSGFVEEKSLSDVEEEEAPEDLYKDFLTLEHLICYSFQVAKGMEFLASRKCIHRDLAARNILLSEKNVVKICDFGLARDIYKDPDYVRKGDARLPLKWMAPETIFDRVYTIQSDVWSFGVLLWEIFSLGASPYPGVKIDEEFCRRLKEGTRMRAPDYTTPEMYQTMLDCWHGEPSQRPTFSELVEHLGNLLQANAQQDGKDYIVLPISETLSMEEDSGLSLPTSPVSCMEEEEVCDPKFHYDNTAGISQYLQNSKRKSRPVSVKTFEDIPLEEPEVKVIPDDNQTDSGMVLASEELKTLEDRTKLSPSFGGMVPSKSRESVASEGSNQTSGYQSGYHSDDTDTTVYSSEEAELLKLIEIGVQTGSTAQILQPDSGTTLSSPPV
T1 sequence (P09874 whole entry): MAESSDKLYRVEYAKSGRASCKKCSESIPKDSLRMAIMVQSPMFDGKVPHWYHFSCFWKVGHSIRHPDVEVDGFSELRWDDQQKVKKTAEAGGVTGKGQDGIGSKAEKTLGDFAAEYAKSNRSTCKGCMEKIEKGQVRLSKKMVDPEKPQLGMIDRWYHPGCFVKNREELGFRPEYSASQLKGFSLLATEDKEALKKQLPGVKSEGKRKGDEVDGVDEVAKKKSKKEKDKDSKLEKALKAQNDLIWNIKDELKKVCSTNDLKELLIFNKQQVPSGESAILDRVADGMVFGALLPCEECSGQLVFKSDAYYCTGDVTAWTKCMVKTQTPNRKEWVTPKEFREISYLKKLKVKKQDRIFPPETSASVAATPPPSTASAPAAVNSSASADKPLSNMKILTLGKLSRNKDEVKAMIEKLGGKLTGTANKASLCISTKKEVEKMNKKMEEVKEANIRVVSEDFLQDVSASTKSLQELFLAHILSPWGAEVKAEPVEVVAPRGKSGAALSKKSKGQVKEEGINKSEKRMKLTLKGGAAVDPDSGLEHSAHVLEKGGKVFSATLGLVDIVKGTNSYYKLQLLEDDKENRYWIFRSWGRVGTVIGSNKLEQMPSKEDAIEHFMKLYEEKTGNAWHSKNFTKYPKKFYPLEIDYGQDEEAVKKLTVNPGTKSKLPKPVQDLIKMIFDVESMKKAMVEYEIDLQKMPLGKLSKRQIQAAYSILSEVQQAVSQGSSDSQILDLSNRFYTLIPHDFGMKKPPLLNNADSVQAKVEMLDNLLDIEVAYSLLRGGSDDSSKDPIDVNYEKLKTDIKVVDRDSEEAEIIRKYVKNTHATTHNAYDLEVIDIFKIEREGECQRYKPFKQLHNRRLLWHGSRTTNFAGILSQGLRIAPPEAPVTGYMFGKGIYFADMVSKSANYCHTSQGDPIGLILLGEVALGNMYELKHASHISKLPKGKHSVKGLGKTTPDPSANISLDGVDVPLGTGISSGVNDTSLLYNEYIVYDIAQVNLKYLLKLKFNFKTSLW
Sequence of Vascular endothelial growth factor receptor 3 (Homo sapiens) (P35916 whole entry): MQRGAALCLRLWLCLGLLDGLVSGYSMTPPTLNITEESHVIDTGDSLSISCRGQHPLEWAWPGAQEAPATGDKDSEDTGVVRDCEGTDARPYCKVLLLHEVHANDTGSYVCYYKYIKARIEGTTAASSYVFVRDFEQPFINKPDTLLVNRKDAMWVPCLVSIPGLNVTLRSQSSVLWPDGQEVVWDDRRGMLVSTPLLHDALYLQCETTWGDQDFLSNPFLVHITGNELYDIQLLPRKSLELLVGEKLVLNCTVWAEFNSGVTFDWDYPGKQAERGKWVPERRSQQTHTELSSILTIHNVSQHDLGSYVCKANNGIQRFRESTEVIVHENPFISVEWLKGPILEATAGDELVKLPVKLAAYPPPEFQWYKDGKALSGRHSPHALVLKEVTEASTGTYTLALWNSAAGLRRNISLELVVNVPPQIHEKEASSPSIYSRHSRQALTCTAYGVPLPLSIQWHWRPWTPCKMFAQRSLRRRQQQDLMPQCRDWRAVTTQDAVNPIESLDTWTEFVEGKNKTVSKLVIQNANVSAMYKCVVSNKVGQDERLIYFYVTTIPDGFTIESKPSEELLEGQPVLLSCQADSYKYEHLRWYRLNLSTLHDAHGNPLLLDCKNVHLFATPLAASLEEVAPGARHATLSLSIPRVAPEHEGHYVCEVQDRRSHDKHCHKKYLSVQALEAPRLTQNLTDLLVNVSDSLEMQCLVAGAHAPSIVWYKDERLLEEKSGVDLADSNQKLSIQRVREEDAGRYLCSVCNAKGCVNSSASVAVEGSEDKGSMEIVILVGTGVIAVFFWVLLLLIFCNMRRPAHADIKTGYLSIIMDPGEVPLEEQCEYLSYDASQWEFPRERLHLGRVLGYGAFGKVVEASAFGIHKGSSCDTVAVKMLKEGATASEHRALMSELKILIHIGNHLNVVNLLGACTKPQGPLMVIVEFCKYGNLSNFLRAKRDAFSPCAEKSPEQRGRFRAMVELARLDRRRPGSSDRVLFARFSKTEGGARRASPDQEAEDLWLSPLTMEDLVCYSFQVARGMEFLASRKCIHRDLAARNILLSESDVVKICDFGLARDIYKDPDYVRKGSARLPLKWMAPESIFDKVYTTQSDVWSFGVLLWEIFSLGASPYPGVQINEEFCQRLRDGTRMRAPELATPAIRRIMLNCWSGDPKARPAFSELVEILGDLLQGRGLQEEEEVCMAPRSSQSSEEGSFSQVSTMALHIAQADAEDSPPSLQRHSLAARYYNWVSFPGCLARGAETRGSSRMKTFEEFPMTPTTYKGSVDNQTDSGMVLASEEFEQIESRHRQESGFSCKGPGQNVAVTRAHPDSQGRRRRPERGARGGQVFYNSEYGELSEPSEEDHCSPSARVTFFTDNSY
Sequence of Hepatocyte growth factor receptor (P08581 whole entry): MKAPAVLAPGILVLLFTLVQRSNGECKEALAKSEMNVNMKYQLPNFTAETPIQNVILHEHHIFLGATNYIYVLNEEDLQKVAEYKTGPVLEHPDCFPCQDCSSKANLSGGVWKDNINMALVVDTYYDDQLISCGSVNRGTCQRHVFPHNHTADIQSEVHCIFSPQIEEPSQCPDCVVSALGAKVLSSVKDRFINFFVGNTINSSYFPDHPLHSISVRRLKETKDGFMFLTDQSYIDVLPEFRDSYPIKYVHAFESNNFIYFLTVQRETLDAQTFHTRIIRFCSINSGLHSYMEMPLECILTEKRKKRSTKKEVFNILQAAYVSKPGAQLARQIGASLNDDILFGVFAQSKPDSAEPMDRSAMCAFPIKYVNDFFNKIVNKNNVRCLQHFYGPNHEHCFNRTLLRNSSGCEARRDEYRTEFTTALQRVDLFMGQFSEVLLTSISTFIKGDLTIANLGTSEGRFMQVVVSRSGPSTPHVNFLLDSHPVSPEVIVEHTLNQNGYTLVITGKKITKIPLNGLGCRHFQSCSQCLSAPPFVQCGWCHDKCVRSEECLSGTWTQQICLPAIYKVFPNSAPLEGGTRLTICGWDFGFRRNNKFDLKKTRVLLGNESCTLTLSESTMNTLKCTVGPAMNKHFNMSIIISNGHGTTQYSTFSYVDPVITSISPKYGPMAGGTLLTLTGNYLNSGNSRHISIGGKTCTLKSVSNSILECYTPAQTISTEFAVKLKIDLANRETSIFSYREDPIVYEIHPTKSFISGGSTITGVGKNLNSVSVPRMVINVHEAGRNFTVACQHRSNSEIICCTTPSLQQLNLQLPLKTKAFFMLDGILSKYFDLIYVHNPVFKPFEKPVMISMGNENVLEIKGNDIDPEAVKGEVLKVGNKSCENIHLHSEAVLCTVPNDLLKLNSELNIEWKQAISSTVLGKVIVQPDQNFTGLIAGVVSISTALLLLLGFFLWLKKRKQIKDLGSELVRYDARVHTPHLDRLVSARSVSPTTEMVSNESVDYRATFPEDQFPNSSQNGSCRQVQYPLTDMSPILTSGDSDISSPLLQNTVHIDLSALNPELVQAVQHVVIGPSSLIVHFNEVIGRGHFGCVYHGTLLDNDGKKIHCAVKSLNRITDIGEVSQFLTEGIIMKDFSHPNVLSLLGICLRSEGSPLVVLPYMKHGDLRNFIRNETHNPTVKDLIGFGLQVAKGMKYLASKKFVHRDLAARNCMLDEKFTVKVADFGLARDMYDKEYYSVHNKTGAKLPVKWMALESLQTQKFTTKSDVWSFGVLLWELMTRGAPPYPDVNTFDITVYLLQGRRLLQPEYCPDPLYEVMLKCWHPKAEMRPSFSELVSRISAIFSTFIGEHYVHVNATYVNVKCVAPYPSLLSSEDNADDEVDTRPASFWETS

`CCCOc1ccc2oc(Cc3cc(=O)[nH]nc3C)cc2c1` gave an IC50 (MCF7 [1]) of 14.5 µM and an IC50 (P815) of 35 µM.
`O=C(c1ccc(Cc2n[nH]c(=O)c3cccnc23)cc1)N1CCCC1` gave an IC50 [2] of 0.0367 µM.
`Cc1n[nH]c(=O)cc1Cc1cc2ccccc2o1` gave an IC50 (MCF7 [1]) of 14.5 µM and an IC50 (P815) of 35 µM.
In the case of `C=CCNC(=S)Nc1cccc(Nc2ccc(Nc3ccc(S(=O)(=O)NC(=N)N)cc3)nn2)c1`, the IC50 (HCT-116 [3]) is reported as 30.3 µM, the inhibition [4] is reported as 89.6% and the “inhibition (INH)” value [5] is reported as 40%.
Work on `Sc1nnc(Cc2ccccc2)c2ccccc12` yielded an IC50 (PC-3) of 8.6 µg/mL (≈ 34.1 µM).
Molecule `NNc1nnc(-c2ccc(Oc3ccccc3)cc2)c2ccccc12` has an IC50 (PC-3) of 12.2 µg/mL (≈ 37.2 µM).
With `O=C1Nc2ccc(Cl)cc2/C1=N/Nc1nnc(-c2ccccc2)c2ccccc12` the IC50 (MDA-MB-231) was 12 µM.
`O=c1c(CNc2ccccc2)cc(-c2ccccc2CO)nn1Cc1ccccc1` showed an IC50 (SK-MEL) of 4.2 µM and an IC50 (KB) of 2.3 µM.
`COC(=O)CNC(=O)Cn1nc(Cc2ccccc2)c2ccccc2c1=O` gave an IC50 (HepG2 [6]) of 5.7 µg/mL (≈ 15.6 µM).
In the case of `Cc1n[nH]c(=O)cc1Cc1cc2cc(Cl)cc(Br)c2o1`, the IC50 (MDA-MB-468) is reported as 3.1 µM.
In the case of `CC(=O)c1ccc(-c2ccc(=O)n(Cc3nc(-c4ncccn4)no3)n2)s1`, the inhibition [7] is reported as 17% and the inhibition (Homo sapiens) is reported as 19%.
In the case of `CNC(=O)c1cc(Oc2ccc(NC(=O)c3nn(-c4ccc(Cl)cc4)cc(C)c3=O)cc2)ccn1`, the IC50 (A549 [8]) is reported as 0.37 µM, the IC50 [9] is reported as 0.00012 µM and the “Ratio IC50” value (A549 [10]) is reported as 3.4.
For `O=C(NNc1nn2cnnc2c2ccccc12)Nc1ccccc1`, the IC50 [11] was 0.31 µM.
With `O=C(Cn1nc(Cc2ccccc2)c2ccccc2c1=O)NNC(=S)Nc1ccccc1` the IC50 (HepG2 [6]) was 7.09 µg/mL (≈ 16 µM).
For `CNC(=O)c1cc(Oc2ccc(NC(=O)Nc3ccc(Cl)c(C(F)(F)F)c3)cc2)ccn1` [SORAFENIB], the IC50 (A549 [8]) was 1.25 µM.
With `C=CC[Se]c1ccc(S(=O)(=O)CCC)nn1` the Activity (MCF7 [12]) was 9.28%, the IC50 (Hep 3B2 [13]) was 30.7 µM and the Activity (Hep 3B2 [14]) was 5.46%. It also gave an IC50 (MCF7 [15]) of 33.8 µM.
`O=C1Nc2ccc(F)cc2/C1=N/Nc1nnc(-c2ccc(Cl)cc2)c2ccccc12` gave an IC50 (MDA-MB-231) of 12 µM.
`CC1=Nc2c(nnc3ccc(C)cc23)C(=O)NN1` showed an IC50 (MCF7 [16]) of 0.049 µM and an IC50 [17] of 0.22 µM.
Work on `O=C(NNc1nn2cnnc2c2ccccc12)NC1CCCCC1` yielded an IC50 (HCT-116 [18]) of 6.04 µM, an IC50 [11] of 0.11 µM and an IC50 (MCF7 [19]) of 8.8 µM.
Work on `O=C(Nc1ccc(Cl)c(Cl)c1)Nc1nnc2ccc(Cl)nn12` yielded an Activity [20] of 3%.
With `Cc1n[nH]c(=O)cc1Cc1cc2cc(Cl)ccc2o1` the IC50 (MDA-MB-468) was 9.01 µM.
In the case of `COc1ccc(-c2cc(Cc3ccccc3O)c(=O)[nH]n2)cc1`, the IC50 (HepG2 [21]) is reported as 26.4 µM and the IC50 (MCF7 [22]) is reported as > 37 µM.
For `COc1cccc(NC(=O)Cc2ccc(-c3nn4c(C)nnc4c4ccccc34)cc2)c1`, the IC50 (HCT-116 [18]) was 57.4 µg/mL.
Work on `COC1CCN(C(=O)c2cc(Cc3n[nH]c(=O)c4ccccc34)ccc2F)C1` (stereo not drawn) yielded an IC50 [23] of 0.0042 µM.
With `COc1ccc(-c2cc(Cc3ccc(Cl)cc3)c(=O)[nH]n2)cc1` the IC50 (HepG2 [21]) was 14.8 µM and the IC50 (MCF7 [22]) was > 37 µM.
`COC1CCN(C(=O)c2cc(Cc3n[nH]c(=O)c4ccccc34)ccc2F)CC1` [AZD2461] showed an IC50 [23] of 0.0028 µM.
`O=C1Nc2ccccc2/C1=N/Nc1nnc(-c2ccc(Cl)cc2)c2ccccc12` gave an IC50 (MDA-MB-231) of 12 µM.
Molecule `Cc1cccc(NC(=S)NNC(=O)c2nnc3ccc(C)cc3c2N)c1` has an IC50 (MCF-12A) of 48.7 µM, an IC50 (MCF7 [16]) of 0.18 µM and an IC50 [17] of 0.55 µM.
For `Cc1n[nH]c(=O)cc1Cc1cc2cc(C(C)C)ccc2o1`, the IC50 (MCF7 [1]) was 14.5 µM and the IC50 (P815) was 35 µM.
